# Source: US20240158377A1, “NOVEL SALT FORMS OF A 4H-PYRAN-4-ONE STRUCTURED CYP11A1 INHIBITOR” (Orion Corporation, priority 2021, published 2024)
# Where a name gives a salt, the structure may show the parent alone.
# Legend:
# Type in all cases: physicochemical
# [1] = Weight loss of the salts during heating by thermogravimetric analysis (TGA); settings: for Weight loss: TGA, heating rate 10° C./min, open pan
# Method: Weight loss of the salts during heating was determined by thermogravimetric analysis (TGA) thermograms collected on TGA equipment (TA Instruments). Heating rate 10° C./min, 25-300° C., open pan.
# Weight loss of each salt of compound (I) during heating was determined by thermogravimetric analysis (TGA) thermograms collected on TGA equipment (TA Instruments). Heating rate 10° C./min, 25-300° C., open pan.
# [2] = Chemical stability: accelerated stability study of pressed tablets, degradation product A, prediction with ASAPprime software; settings: summary statement
# Method: The degradation rate of various salts of compound (I) was determined by measuring the amount of shelf-life determining degradation product 2-[(5-{[1-(methanesulfonyl)piperidin-4-yl]methoxy}-4-oxo-4H-pyran-2-yl)methyl]-2,3-dihydro-1H-isoindol-1 -one (degradation product A) from an accelerated stability study wherein samples were stored at various different temperature and relative humidity conditions. Each sample consisted of a pressed tablet containing a constant amount of the tested salt together with conventional excipients. The predicted increase (Δ %) of the degradation product A after 5 years was calculated with ASAPprime® software using the following parameters: • Bottle volume and material: 100 ml (HDPE HIS) • Desiccant: Silica (1 g) • Tablet amount: 60 • Conditions: 25° C./60% RH
# [3] = Weight loss of the salts during heating by thermogravimetric analysis (TGA); settings: heating rate 10° C./min, 30-250° C., open pan, weight loss over 30-200° C.
compound,measurement,setting,value
"CS(=O)(=O)N1CCC(COc2coc(CN3Cc4ccccc4C3)cc2=O)CC1 [Maleic acid salt (form 3), 2-(isoindolin-2-ylmethyl)-5-((1-(methylsulfonyl)piperidin-4-yl)methoxy)-4H-pyran-4-one]",Weight loss,[1]; weight loss over 25-120° C.,3.2%
"CS(=O)(=O)N1CCC(COc2coc(CN3Cc4ccccc4C3)cc2=O)CC1 [Oxalic acid salt (form 1), 2-(isoindolin-2-ylmethyl)-5-((1-(methylsulfonyl)piperidin-4-yl)methoxy)-4H-pyran-4-one]",Weight loss,[1]; weight loss over 25-175° C.,0.4%
"CS(=O)(=O)N1CCC(COc2coc(CN3Cc4ccccc4C3)cc2=O)CC1 [p-toluenesulfonic acid salt, 2-(isoindolin-2-ylmethyl)-5-((1-(methylsulfonyl)piperidin-4-yl)methoxy)-4H-pyran-4-one]",solid-state stability in pharmaceutical dosage forms such as tablets (in words),[2],excellent sold-state stability
same,weight loss during heating (in words),"[1]; crystalline salt, summary statement",low weight loss during heating
same,Weight loss,[3],0.2%
"CS(=O)(=O)N1CCC(COc2coc(CN3Cc4ccccc4C3)cc2=O)CC1 [Methanesulfonic acid salt, 2-(isoindolin-2-ylmethyl)-5-((1-(methylsulfonyl)piperidin-4-yl)methoxy)-4H-pyran-4-one]",Weight loss,[1]; weight loss over 25-75° C.,5%
O=S(=O)(O)c1ccc2ccccc2c1 [2-Naphthalenesulphonic acid],Weight loss,[1]; weight loss over 25-225° C.,<0.1%
"CS(=O)(=O)N1CCC(COc2coc(CN3Cc4ccccc4C3)cc2=O)CC1 [Hydrochloric acid salt (form 3), 2-(isoindolin-2-ylmethyl)-5-((1-(methylsulfonyl)piperidin-4-yl)methoxy)-4H-pyran-4-one]",Weight loss,[1]; weight loss over 25-190° C.,0.5%
"CS(=O)(=O)N1CCC(COc2coc(CN3Cc4ccccc4C3)cc2=O)CC1 [Sulfuric acid salt (form 2), 2-(isoindolin-2-ylmethyl)-5-((1-(methylsulfonyl)piperidin-4-yl)methoxy)-4H-pyran-4-one]",Weight loss,[1]; weight loss over 25-100° C.,8%
"CS(=O)(=O)N1CCC(COc2coc(CN3Cc4ccccc4C3)cc2=O)CC1 [Nitric acid salt, 2-(isoindolin-2-ylmethyl)-5-((1-(methylsulfonyl)piperidin-4-yl)methoxy)-4H-pyran-4-one]",Weight loss,[1]; weight loss over 25-205° C.,0.9%
"O=S(=O)(O)c1cccc2c(S(=O)(=O)O)cccc12 [1,5-Naphthalenedisulfonic acid]",Weight loss,[1]; weight loss over 25-220° C.,0.3%
"CS(=O)(=O)N1CCC(COc2coc(CN3Cc4ccccc4C3)cc2=O)CC1 [1,2-Ethanedisulfonic acid salt, 2-(isoindolin-2-ylmethyl)-5-((1-(methylsulfonyl)piperidin-4-yl)methoxy)-4H-pyran-4-one]",Weight loss,[1]; weight loss over 25-100° C.,9.9%
"CS(=O)(=O)N1CCC(COc2coc(CN3Cc4ccccc4C3)cc2=O)CC1 [Benzenesulfonic acid salt, 2-(isoindolin-2-ylmethyl)-5-((1-(methylsulfonyl)piperidin-4-yl)methoxy)-4H-pyran-4-one]",Weight loss,[1]; weight loss over 25-220° C.,0.3%
"CS(=O)(=O)N1CCC(COc2coc(CN3Cc4ccccc4C3)cc2=O)CC1 [hydrobromic acid salt, 2-(isoindolin-2-ylmethyl)-5-((1-(methylsulfonyl)piperidin-4-yl)methoxy)-4H-pyran-4-one]",Weight loss,[1]; weight loss over 25-220° C.,0.1%
"CS(=O)(=O)N1CCC(COc2coc(CN3Cc4ccccc4C3)cc2=O)CC1 [Ethanesulfonic acid salt, 2-(isoindolin-2-ylmethyl)-5-((1-(methylsulfonyl)piperidin-4-yl)methoxy)-4H-pyran-4-one]",Weight loss,[1]; weight loss over 25-190° C.,<0.3%
